Experiment [1] deals with Peripheral blood mononuclear cells. In words: Mixed lymphocyte reaction (MLR) test. In kind it is cell-based, human. To be noted: Table 1, 50% suppression of the MLR. The method, then: (§1) Pteridine derivatives were first dissolved (10 mM) in dimethylsulfoxide (hereinafter referred as DMSO) and further diluted in culture medium before use for the following in vitro experiments. The commercially available culture medium consisted of RPMI-1640+10% foetal calf serum (FCS). Some pteridine derivatives described the previous examples were tested in the following lymphocyte activation tests:
(§2) Peripheral blood mononuclear cells (hereinafter referred as PBMC) were isolated from heparinized peripheral blood by density gradient centrifugation over Lymphoprep (Nycomed, Maorstua, Norway). Allogeneic PBMC or Eppstein-Barr Virus-transformed human B cells [commercially available under the trade name RPMI1788 (ATCC name CCL156)] which strongly express B7-1 and B7-2 antigens were used as stimulator cells after irradiation with 30 Gy. MLR was performed in triplicate wells. After 5 days incubation at 37° C., 1 μCi [^3H]-thymidine was added to each cup. After a further 16 hours incubation, cells were harvested and counted in a β-counter. Inhibition of proliferation by a compound (drug) described in some of the previous examples was counted using the formula:
[formula] wherein cpm is the thymidine count per minute. The MLR assay is regarded by those skilled in the art as an in vitro analogue of the transplant rejection since it is based on the recognition of allogeneic major histocompatibility antigens on the stimulator leukocytes, by responding lymphocytes. Assays for CD3 and CD 28
Pteridine derivatives were first dissolved (10 mM) in dimethylsulfoxide (hereinafter referred as DMSO) and further diluted in culture medium before use for the following in vitro experiments. The commercially available culture medium consisted of RPMI-1640+10% foetal calf serum (FCS). Some pteridine derivatives described in the previous examples (as indicated in table 3 below) were tested in the following mixed lymphocyte reaction (MLR) assay.
as §2, with “CCL156)]which” for “CCL156)] which”
[formula] wherein cpm is the thymidine count per minute. The MLR assay is regarded by those skilled in the art as an in vitro analogue of the transplant rejection since it is based on the recognition of allogeneic major histocompatibility antigens on the stimulator leukocytes, by responding lymphocytes.

The subject of experiment [2] is Highly purified T cells stimulated by anti-CD3 mAb. In words: CD3 assay: T-cell proliferation stimulated by immobilized anti-CD3 mAb + PMA (BrdU). The class given is cell-based, human. To be noted: 50% reduction in T-cell proliferation, read-out: CD 3 IC50. How it is done:
as §1
(§3) T cells were purified by removing non-T cells. Briefly, monocytes were removed by cold agglutination. The resulting lymphoid cells were further purified by a cell enrichment immunocolumn [Cellect Human T commercially available from Biotex, Edmonton, Alberta, Canada)] by a process of negative selection. More than 95% of the B cells were removed with this procedure. After depletion, the resulting T cell preparation was highly purified, i.e. these cells could not be activated by phytohaemagglutinin (PHA) or rIL-2 alone at concentrations capable of stimulating RBMC prior to deletion.
(§4) Highly purified T cells (10^6/ml) were stimulated by immobilized anti-CD3 or anti-CD28 monoclonal antibodies (hereinafter referred as mAb) in the presence of phorbol myristate acetate (hereinafter referred as PMA). Anti-CD3 mAb (available from CLB, Amsterdam, Netherlands) were fixed on a 96-microwell plates by incubating the wells with 50 μl of mAb solution (1/800 dilution in culture medium). For anti-CD28 mAb (available from CLB, Amsterdam, Netherlands) 50 μl (1/650 dilution in culture medium) was added directly to the wells. Further, a 20 μl PMA (commercially available from Sigma, St. Louis, Mo., USA) solution (final concentration: 0.5 ng/ml) was added. Subsequently, 20 μl of a pteridine derivative described in the previous examples were added by serial dilution in triplicate wells. Finally 100 μl of the T-cell suspension (10^6/ml) was added. After 48-hour incubation at 37° C. in 5% CO2, 20 μl of a bromo-deuridine (hereinafter referred as BrdU) 100 μM solution (commercially available as Cell Proliferation Elisa from Boehringer-Mannheim Belgium) was added to each well. After a further overnight incubation, T-cell proliferation was measured using a calorimetric immuno-assay for qualification of cell proliferation based on the incorporation of BrdU during DNA synthesis. Optical density (hereinafter referred as OD) was measured by a Behring EL311 plate reader at 450 nm (reference wavelength: 690 nm). Inhibition of proliferation by the pteridine derivative (drug) was counted while using the formula: […]

The subject of experiment [3] is Highly purified T cells stimulated by anti-CD28 mAb. Put plainly: CD28 assay: T-cell proliferation stimulated by anti-CD28 mAb + PMA (BrdU). In kind it is cell-based, human. To be noted: 50% reduction in T-cell proliferation. The method, then:
as §1, §3, §4

The test system of experiment [4] is human TNF-α. In words: TNF-α assay: suppression of TNF-α production by LPS-stimulated PBMC (ELISA). In kind it is cell-based. To be noted: Homo sapiens, PBMC; Table 2; LPS 1 μg/ml, 72 hours. How it is done: Peripheral blood mononuclear cells (herein referred as PBMC), in response to stimulation by lipopolysaccharide (LPS), a gram-negative bacterial endotoxin, produce various […], in particular human TNF-α and IL-1 β. Inhibition of the activation of PBMC can therefore be measured by the level of suppression of the production of TNF-α or IL-1 β by PBMC in response to stimulation by LPS.
(§5) Such inhibition measurement was performed as follows: PBMC were isolated from heparinized peripheral blood by density gradient centrifugation over Lymphoprep (commercially available from Nycomed, Norway). LPS was then added to the PMBC suspension in complete medium (10^6 cells/ml) at a final concentration of 1 μg/ml. The pteridine derivative to be tested was added at different concentrations (0.1 μM, 1 μM and 10 μM) and the cells were incubated at 37° C. for 72 hours in 5% CO2. The supernatants were collected, then TNF-α and/or IL-1 β concentrations were measured with respectively an anti-TNF-α antibody or an anti-IL-1 β antibody in a sandwich ELISA (Duo Set ELISA human TNFα, commercially available from R&D Systems, United Kingdom). The calorimetric reading of the ELISA was measured by a Multiskan RC plate reader (commercially available from ThermoLabsystems, Finland) at 450 nm (reference wavelength: 690 nm). Data analysis was performed with Ascent software 2.6. (also from ThermoLabsystems, Finland): a standard curve (recombinant human TNFα) was drawn and the amount (pg/ml) of each sample on the standard curve was determined.
The % suppression of human TNFα production or human IL-1 β by the pteridine derivatives of the invention (drugs) was calculated using the formula: […]
Peripheral blood mononuclear cells (herein referred as PBMC), in response to stimulation by lipopolysaccharide (hereinafter LPS), a gram-negative bacterial endotoxin, produce various […], in particular human TNF-α. Inhibition of the activation of PBMC can therefore be measured by the level of suppression of the production of TNF-α by PBMC in response to stimulation by LPS.
as §5, with “TNF-α” for “TNF-α and/or IL-1 β”, “with” for “with respectively”, “anti-TNF-α” for “anti-TNF-α antibody or an anti-IL-1 β”, “TNF-α,” for “TNFα,”, “colorimetric” for “calorimetric”
The % suppression of human TNFα production by the pteridine derivatives of the invention (drugs) was calculated using the formula: […]
A general note: ELISA stands for enzyme-linked immunosorbent assay.

Experiment [5] concerns Peripheral blood T cells. Put plainly: In vivo leukocyte activation and immunosuppression whole blood assay (ConA stimulation, FACScan). Details: species or system mice. To be noted: 30 mg/kg per day i.p.; for TCR+, CD69+ peripheral blood T cells after ConA: 2 hours before ConA, baseline 0.5%; for TCR+, CD69+ peripheral blood T cells after ConA / TCR+, IL-2R+ peripheral blood T cells after ConA: untreated up to 3%; for ConA-stimulated CD71 up-regulation on T cells: baseline 4.8%, untreated 9.3% and 5.5% after 1 and 2 days; for CD134 expression on peripheral blood T cells after ConA: untreated up to 6.6% within 2 days, baseline […]. The method, then: Inbred mice (e.g. AKR strain), weighting from 20 to 30 g, were stimulated by intraperitoneal injection with mitogens specific for T cells (e.g. Concanavalin A, hereinafter referred as ConA, 500 μg per mouse), B cells or monocytes/macrophages (e.g. LPS 20 μg per mouse). […] Peripheral blood was collected 24, 36, 48, and respectively 72 hours after stimulation for immune fluorescence staining and FACScan analysis.
FACScan analysis proceeded as follows: heparinized whole blood (50 μl) was removed of red blood cells by incubation with a lysing buffer. The remaining leukocytes were double-stained with phycoerythrin-conjugated antibodies specific for T cells (e.g. T cell receptor TCR), B cells (e.g. CD45R/B220 (commercially available from Pharmingen) or monocytes/macrophages (e.g. F4/80) (commer-cially available from Serotec) in combination with FITC-conjugated antibodies against various cell surface markers such as CD69 (early activation molecule), CD25 (IL-2 receptor), CD71 (transferring receptor), B7-1/2 (ligand for the co-stimulatory molecule CD28) and CD11b (complement receptor 3). Cells were examined by flow cytometry using CellQuest software (commercially available from Decton Dickinson).

Seven molecules from patent US7501513B2, “Immunosuppressive effects of pteridine derivatives” (4 AZA Bioscience NV, priority 2003, dated 2009) can be followed below.

SMILES strings stand for the structures. Where two headings read alike, the source gives them in different places. Where only a bound is given, the exact number is not on record here.

The term IC50 denotes the concentration that inhibits the measured activity by half. Regarding `CCOc1nc(N)nc2ncc(-c3ccc(C(F)(F)F)cc3)nc12` [Example 18, 2-amino-6-(p-trifluoromethylphenyl)-4-ethoxy-pteridine], the concentration for half-maximal inhibition (IC50) was determined as 10 µM in experiment [1] (Homo sapiens, PBMC); 10 µM in experiment [2] (Homo sapiens); 0.8 µM in experiment [3] (Homo sapiens).
As for `CCOc1nc(N)nc2ncc(-c3ccc(CC)cc3)nc12` [Example 25, 2-amino-6-(p-ethylphenyl)-4-ethoxy-pteridine], the IC50 in experiment [1] (Homo sapiens, PBMC) came to 8.2 µM; in experiment [2] (Homo sapiens), 10 µM; in experiment [4], 8.5 µM; in experiment [3] (Homo sapiens) it was 10 µM.
As to `CCOc1nc(N)nc2ncc(-c3cccc(OC)c3)nc12` [Example 15, 2-amino-6-(m-methoxyphenyl)-4-ethoxy-pteridine], the IC50 is 8.3 µM in experiment [1] (Homo sapiens, PBMC); 20 µM in experiment [2] (Homo sapiens); greater than 10 µM in experiment [4]; 7 µM in experiment [3] (Homo sapiens).
For `CCOc1nc(N)nc2ncc(-c3ccsc3)nc12` [Example 20, 2-amino-6-(3-thienyl)-4-ethoxy-pteridine], the IC50 was 15 µM in experiment [2] (Homo sapiens) and 0.7 µM in experiment [3] (Homo sapiens).
In experiment [1] (Homo sapiens, PBMC), `COc1ccc(-c2cnc3nc(N)nc(OC(C)C)c3n2)cc1OC` [Example 45, 2-amino-6-(3,4-dimethoxyphenyl)-4-isopropoxypteridine] registered an IC50 of 0.4 µM. In experiment [5], the “TCR+, CD69+ peripheral blood T cells after ConA” value was 2.4%; the “ConA-stimulated CD71 up-regulation on T cells” value is recorded as “baseline levels”; the “TCR+, IL-2R+ peripheral blood T cells after ConA” value was found to be 1.7%; the “CD134 expression on peripheral blood T cells after ConA” value turned out to be 4.2%. Moreover, the IC50 in experiment [2] (Homo sapiens) stood at 6.7 µM. The IC50 in experiment [3] (Homo sapiens) worked out at 1.7 µM.
On to `CCOc1nc(N)nc2ncc(-c3ccc(F)c(F)c3)nc12` [Example 16], for which the IC50 in experiment [1] was greater than 10 µM; in experiment [2] it was 9 µM; in experiment [3] it was 4 µM.
With `CCOc1nc(N)nc2ncc(-c3ccc(OC)c(OC)c3)nc12` [Example 30, 2-amino-6-(3,4-dimethoxyphenyl)-4-ethoxy-pteridine], half-maximal inhibition in experiment [1] (Homo sapiens, PBMC) (IC50) was put at 0.9 µM. In experiment [5], the “TCR+, CD69+ peripheral blood T cells after ConA” value is listed as 1.6%; the “ConA-stimulated CD71 up-regulation on T cells” value is listed as “baseline levels”; the “TCR+, IL-2R+ peripheral blood T cells after ConA” value is 1.5%; the “CD134 expression on peripheral blood T cells after ConA” value is on record as 3.5%. Moreover, the IC50 in experiment [2] (Homo sapiens) came out at 0.7 µM. In experiment [3] (Homo sapiens), the IC50 amounted to 0.7 µM.
